Results as given in patent publication US20240418701A1, “SINGLE MOLECULE IDEN[…] A REACTIVE HETERO-NANOPORE” (priority 2021, published 2024).

Key:
Octameric M2 MspA = target: T1, Octameric M2 MspA (Mycolicibacterium smegmatis, UniProt A0QR29, D117N/D118N/D120N/D145R/D161R/E166K); assay: Alditol sensing using M2 MspA nanopore (control without PBA); type: binding, Mycobacterium smegmatis; details: alditol 4 mM in cis, +100 mV
T1 construct: made in house; host or cells: E. coli BL21 (DE3)
Description: FIG. 87: Alditol sensing using M2 MspA nanopore. Glycerol, erythritol, xylitol and sorbitol were used as the representative alditols with different number of hydroxyl groups. All measurements were carried out as described in Methods 1 in Example 3. Octameric M2 MspA was applied as the nanopore sensor. A transmembrane potential of +100 m V was continually applied. Each alditol was added to cis with a final concentration of 4 mM.
The octameric M2 MspA was used as a control in FIG. 87. It was expressed with E. coli BL21 (DE3) and purified by nickel affinity chromatography as reported previously.^1

[1] = target: T2, MspA-PBA (boronic acid appended hetero-octameric MspA) (Mycolicibacterium smegmatis, UniProt A0QR29, D117C/D118N/D120N/D145R/D161R/E166K); assay: Single channel recording of alditol binding to MspA-PBA nanopore (standards and zero-sugar drinks); design: species or system Mycobacterium smegmatis; details: N=3; for ratio (mean current percentage blockage) / std (standard deviation of the blocking level): alditol 4 mM (glycerol 8 mM) in cis
T2 construct: H6 (hexa-histidine) (C); 3-(maleimide) phenylboronic acid (MPBA) adduct on the thiol of Cys90; made in house; host or cells: E. coli BL21 (DE3) pLysS, co-expression from pETDuet-1
Description: FIG. 88: Definition of event parameters. (a) A representative electrophysiology trace containing nanopore events. Xylitol was treated as the model analyte. I0 is the open pore current and Ib is the residual current caused by alditol blockade. ratio is derived from (I0−Ib)/I0, which is defined as the percentage blockage. τoff represents the dwell time of an event. τon represents the inter-event interval. std is the standard deviation value of the blockage level. (b-c) The histogram plot of ratio (b) and std (c) acquired from a continually recorded trace. The histograms were Gaussian fitted and the peaks of the fitting results respectively represent the mean value of ratio and the mean std. (d-e) The histogram plots of τoff (d) and τon (e) acquired from a continually recorded trace. The histogram plots were respectively fit to a single exponential curve, according to the equation y=a*exp (−x/τ), from which the mean event dwell time (τoff) (d) and the mean inter-event interval (τon) (e) were respectively derived. If not otherwise stated, all results in this manuscript were described by event parameters defined above.
All subsequent nanopore measurements were carried out with a 1.5 M KCl buffer (1.5 M KCl, 10 mM 3-(N-Morpholino) propanesulfonic acid (MOPS), pH 7.0) and a +100 m V continually applied potential (Method 1 in Example 3). 13 types of alditols, which were derived from the reduction of the carbonyl group of C3-C6 monoaldoses were treated as model polyols (FIGS. 77b and 83). The PBA of MspA-PBA can complex with a polyol, forming a cyclic ester at the pore constriction and resulting in the corresponding nanopore event being reported. All alditols were added to the cis side of the pore and the final concentration of alditols was set at 4 mM with the exception of glycerol, which was set at 8 mM instead. […] In addition, single molecule sensing of glycerol and D-Sorbitol by MspA-PBA are as shown in FIGS. 104 and 105, respectively.
To describe the sensing events quantitatively, event parameters such as the open-pore current (I0), the current blockade (Ib), the percentage blockage (ratio), the event dwell time (τoff), the inter-event intervals (τon) and the standard deviation value of the blockage level (std) were defined as described in FIG. 88. The percentage blockage, also referred to for simplicity as ratio, is defined as (I0−Ib)/I0.
Quantitatively, the reciprocal of the mean inter-event interval (1/τon, N=3) is linearly correlated with the alditol concentration, consistent with a bimolecular model. The mean event dwell time τoff (N=3) however is independent of the alditol concentration, and this is consistent with a unimolecular dissociation mechanism (FIGS. 89e-92e, Table 18). […] The binding constant for borate cyclic ester formation for alditols increases as the number of hydroxyl groups in the alditol increases (FIG. 77c and Table 18), consistent with conclusions drawn previously from the corresponding NMR measurements.^52 Nanopore measurements were also performed with different applied voltages. […] This is expected because all alditols tested in this paper are electrically neutral and the formation of a borate ester is independent of the local electric field.
All nanopore measurements were performed as described previously.^1,2 Briefly, the measurement device has two custom chambers separated by a thick Teflon film containing a drilled (˜100 μm) aperture. Before the measurement, the aperture was first treated with 0.5% (v/v) hexadecane in pentane and set for pentane evaporation. Electrolyte buffer (500 μL) was added to the electrically grounded chamber (cis chamber) and the opposing chamber (trans chamber). All nanopore measurements in this paper were performed with a 1.5 M KCl buffer (1.5 M KCl, 10 mM MOPS, pH 7.0). Two custom-made Ag/AgCl electrodes were placed in both chambers in contact with the buffers and the patch-clamp amplifier to form a closed circuit. […]

[2] = voltage series: +60 mV, glycerol 12 mM, other alditols 8 mM
[3] = voltage series: +80 mV, glycerol 12 mM, other alditols 8 mM
[4] = voltage series: +100 mV, glycerol 12 mM, other alditols 8 mM
[5] = voltage series: +120 mV, glycerol 12 mM, other alditols 8 mM

T2 sequence (A0QR29 other isoform, or with tags, fused parts or gaps D117N/D118N/D120N/D145R/D161R/E166K): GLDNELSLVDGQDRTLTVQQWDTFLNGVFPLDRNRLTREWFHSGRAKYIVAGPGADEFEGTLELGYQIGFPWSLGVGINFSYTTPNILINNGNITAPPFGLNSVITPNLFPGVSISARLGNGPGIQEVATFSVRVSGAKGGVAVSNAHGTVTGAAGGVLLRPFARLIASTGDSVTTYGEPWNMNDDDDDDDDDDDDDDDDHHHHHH
T2 sequence (A0QR29 other isoform, or with tags, fused parts or gaps D117C/D118N/D120N/D145R/D161R/E166K): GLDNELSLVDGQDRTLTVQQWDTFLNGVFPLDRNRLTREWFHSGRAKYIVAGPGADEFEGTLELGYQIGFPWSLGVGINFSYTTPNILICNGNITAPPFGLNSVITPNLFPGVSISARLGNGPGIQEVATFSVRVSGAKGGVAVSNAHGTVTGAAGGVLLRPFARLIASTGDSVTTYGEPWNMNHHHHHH
T1 sequence (A0QR29 28-211 D117N/D118N/D120N/D145R/D161R/E166K): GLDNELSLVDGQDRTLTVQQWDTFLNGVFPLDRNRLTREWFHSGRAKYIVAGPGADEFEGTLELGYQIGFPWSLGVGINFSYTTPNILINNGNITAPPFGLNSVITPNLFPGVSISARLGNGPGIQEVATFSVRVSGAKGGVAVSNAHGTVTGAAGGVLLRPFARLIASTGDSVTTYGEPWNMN

## OCC(O)CO [glycerol]
Octameric M2 MspA
  binding events with M2 MspA: No binding events were observed
[1]; +100 mV
  ratio (mean current percentage blockage): 17.07 ± 0.15%
  std (standard deviation of the blocking level): 2.57 ± 0.07 pA
[1]; alditol 6 mM in cis, +100 mV
  1/τon: 1.3 ± 0.2 s⁻¹
  τoff: 10.5 ± 0.8 ms
[1]; alditol 8 mM in cis, +100 mV
  1/τon: 1.7 ± 0.2 s⁻¹
  τoff: 10.3 ± 0.4 ms
[1]; alditol 10 mM in cis, +100 mV
  1/τon: 2.1 ± 0.3 s⁻¹
  τoff: 10.5 ± 0.7 ms
[1]; alditol 12 mM in cis, +100 mV
  1/τon: 2.5 ± 0.3 s⁻¹
  τoff: 10.4 ± 0.5 ms
[1]; [2]
  1/τon: 2.2 ± 0.2 s⁻¹
[1]; [3]
  1/τon: 2.35 ± 0.14 s⁻¹
[1]; [4]
  1/τon: 2.4 ± 0.3 s⁻¹
[1]; [5]
  1/τon: 2.4 ± 0.2 s⁻¹

## OC[C@@H](O)[C@H](O)[C@@H](O)CO [xylitol]
Octameric M2 MspA
  binding events with M2 MspA: No binding events were observed
[1]; +100 mV
  ratio (mean current percentage blockage): 25.70±0.10%
  std (standard deviation of the blocking level): 6.28±0.07 pA
[1]; alditol 2 mM in cis, +100 mV
  1/τon: 0.42 ± 0.02 s⁻¹
  τoff: 515.3 ± 43.5 ms
[1]; alditol 4 mM in cis, +100 mV
  1/τon: 0.84 ± 0.04 s⁻¹
  τoff: 496.3 ± 18.6 ms
[1]; alditol 6 mM in cis, +100 mV
  1/τon: 1.3 ± 0.1 s⁻¹
  τoff: 461.1 ± 13.4 ms
[1]; alditol 8 mM in cis, +100 mV
  1/τon: 1.71 ± 0.03 s⁻¹
  τoff: 474.6 ± 21.2 ms
[1]; [2]
  1/τon: 1.66 ± 0.02 s⁻¹
[1]; [3]
  1/τon: 1.69 ± 0.02 s⁻¹
[1]; [4]
  1/τon: 1.70 ± 0.03 s⁻¹
[1]; [5]
  1/τon: 1.68 ± 0.04 s⁻¹
